Measurements from paper PMC5329948, “Caspase vinyl sulfone small molecule inhibitors prevent axonal degeneration in human neurons and reverse cognitive impairment in Caspase-6-overexpressing mice” (Molecular Neurodegeneration, 2017).

Experiments:
mice hippocampi = assay: Hippocampal Casp6 substrates, synaptic and glial markers after treatment (western blot, immunohistochemistry); type: in vivo, mouse
Description: Protein extracts from HCT116 cells and human primary neurons were subjected to western blotting analyses. The 10630 (1:10 000) and GN60622 (1:10 000) neoepitope antibodies against the p20 subunit of active Casp6 (Casp6p20) and α-tubulin cleaved by Casp6 (TubΔCasp6) were generated previously in our laboratory. The β-actin clone AC-15 (1:5 000, Sigma-Aldrich, Oakville, ON, CA), Casp6 (1:1 000), Synapsin (1:5 000), full-length α-tubulin (1:1 000, Cell Signalling Technology Inc., Danvers, MA, USA), GFAP (1:3 000, Dako, Burlington, ON, CA), synaptophysin (1:5 000, Sigma, Oakville, ON, CA), and PSD95 clone K28143 (1:5 000, UC Davis/NIH NeuroMab Facility) were purchased. All antibodies were diluted in 5% non-fat dry milk. Secondary anti-mouse (1:5 000, GE Healthcare Life Sciences, Baie D’Urfe, QC, CA) and anti-rabbit antibodies (1:5 000, Dako, Burlington, ON, CA) conjugated to horseradish peroxidase were used to detect immunoreactive proteins using ECL prime western blotting detection reagent (GE Healthcare Life Sciences, Baie D’Urfe, QC, CA) and Kodak BioMax MR film (Kodak, Rochester, NY, USA). Secondary anti-mouse conjugated to alkaline phosphatase (Jackson Immunoresearch Laboratories Inc., West Grove, PA) was developed with nitro-blue tetrazolium (Thermo Fisher Scientific, Waltham, MA, USA) and 5-bromo-4-chloro-3-indolylphosphate (Thermo Fisher Scientific, Waltham, MA, USA) for chromogenic detection of proteins. The western blots were scanned with an HP scanner and the images were not manipulated except to adjust the brightness/contrast and this was done simultaneously to the entire blot. Quantification was performed with the ImageJ software (NIH, Bethesda, MD, USA).
Only males were used and littermates from each genotype (wild type (WT)/WT, WT/Cre, & knock-in (KI/)Cre) were tested together. The experimenter was blind to genotype and treatment groups. Mice were administered 20 mg/kg NWL-117 or physiological saline (0.9% NaCl) by intraperitoneal injections two times 48 h apart. […] Blood brain barrier permeability of NWL-117 caspase inhibitor: Briefly, 18–22 month old Casp6 mice were anesthetised with isoflurane, warmed with a heating blanket, and their physiological vitals (heart rate, body temperature, and respiration) monitored. The skin over the mouse’s neck was shaved, xylocaine applied, and an incision was made along the midline. Under a surgical microscope, the right carotid artery was gently separated from surrounding tissue. Two suture threads were placed at the proximal and distal ends of the carotid, and a small incision was made along the carotid wall. A micro-catheter (attached to a 1 ml syringe controlled by a micropump) was inserted and pushed to the entrance of the internal carotid artery. The catheter was secured in place using suture thread. NWL-117 (20 mg/kg) was infused via the micro-catheter using a pump set at 50 μL/min (total volume between 64 μL and 130 μL). After 5 min, blood was collected by intra-cardiac puncture, the mouse was perfused through the heart with ice cold saline for 2–3 min. The brain was removed and hippocampi were dissected and frozen on dry ice and stored. Samples were sent to the Biopharmacy platform at the University of Montreal (Quebec, Canada) for liquid chromatography and tandem mass spectrometry analysis. The integrity of the blood-brain barrier was confirmed by injecting 3% Evan’s blue solution in 20 month old Casp6 mice. […]

mice = assay: One month treatment toxicity in mice (pathology report); type: in vivo, mouse; settings: one month treatment (Additional file 1)
Procedure: Casp6 transgenic mouse model: All animal procedures followed the Canadian Council on Animal Care guidelines and were approved by the McGill Animal care committees. Sixteen to 20 month old C57BL/6 J mice were bred and aged in the pathogen-free Goodman Cancer Research Centre Mouse Transgenic Facility at McGill University. Mice were housed in a temperature-controlled room at 22 °C and were kept on a 12 h light/dark cycle. Food and water were available at libitum. Casp6 overexpressing mice (KI/Cre) express Casp6p20p10 under the CAG promoter (CMV immediate early enchancer/chicken β-actin promoter fusion) in the CA1 pyramidal cell layer of the hippocampus under the control of calmodulin kinase IIa (CAMKIIa)-regulated Cre expression.
Additional file 1: Pathology report. Contains pharmacokinetic and toxicological analysis of CD-1 mice treated with NWL-117 for 28 days every 3 days. (PDF 3742 kb) Additional file 2: Figures S1-S4. Contains additional information to complement Figs. 3, 4, and 6 of the manuscript. (PDF 463 kb)

SMILES: CCC(C)[C@H](NC(=O)[C@H](CCC(=O)O)NC(=O)[C@@H](NC(=O)OCc1ccccc1)C(C)C)C(=O)N[C@H](/C=C/S(C)(=O)=O)CC(=O)O (stereo partly drawn) [NWL-117]
- Synapsin, synaptophysin and PSD95 hippocampal protein levels (mice hippocampi; 20 mg/kg i.p.): unchanged
- TubΔCasp6 immunostaining, CA1, KI/Cre mice (mice hippocampi; 20 mg/kg i.p.): increased non-significantly
- TubΔCasp6 immunostaining, CA1, control mice (mice hippocampi; 20 mg/kg i.p.): non-significantly decreased TubΔCasp6 levels threefold
- GFAP levels (mice hippocampi; KI/Cre mice hippocampal extracts): did not change
- p97 cleaved by Casp6 (Δp97) (mice hippocampi; KI/Cre mice, versus saline): not different
- toxicity after one month treatment (mice): No obvious toxicity
